Results published in ChEMBL document CHEMBL2375306, “Antimicrobial peptides containing unnatural amino acid exhibit potent bactericidal activity against ESKAPE pathogens” (Bioorg Med Chem, 2013).
Converted amounts (≈) assume the structure as drawn. Square brackets hold non-standard residues; d marks the D form. Peptide text beside a SMILES is read from it. * marks the point of attachment. ξ: configuration not given here. X3 = NCCCC[C@H](NC(=O)[C@H](CCCCN)NC(=O)[C@H](CCCCN)NC(=O)[C@H](CCCCN)NCCCC(=O)[C@@H]1Cc2ccccc2CN1*)C(N)=O; X6 = NCCCC[C@H](NC(=O)[C@H](CCCCN)NC(=O)[C@H](CCCCN)NC(=O)[C@H](CCCCN)NCCC(=O)[C@@H]1Cc2ccccc2CN1*)C(N)=O; Phe(4-NO2) = N[C@@H](Cc1ccc([N+](=O)[O-])cc1)C(=O)O; Pro(3ξ,4ξ-(CH2)4) = O=C(O)[C@H]1NCC2CCCCC21; Phe(4-F) = N[C@@H](Cc1ccc(F)cc1)C(=O)O; Tic = O=C(O)[C@@H]1Cc2ccccc2CN1; X5 = CC(=O)NC(=O)[C@H](CCCCN)N*; X1 = CC(=O)NC(=O)[C@H](CN)N*; Dab = NCC[C@H](N)C(=O)O; Dap = NC[C@H](N)C(=O)O; GABA = NCCCC(=O)O; βAla = NCCC(=O)O

Legend:
Format in all cases: functional
[1] = test system: Enterococcus faecium; assay: Antibacterial activity against Enterococcus faecium MMC4 after 24 hrs by broth microdilution method; settings: MMC4, 24 h
[2] = test system: Klebsiella pneumoniae; assay: Antibacterial activity against Klebsiella pneumoniae BAMS clinical isolate 07-18 after 24 hrs by broth microdilution method; settings: BAMS clinical isolate 07-18, 24 h
[3] = test system: Acinetobacter baumannii; assay: Antibacterial activity against Acinetobacter baumannii WRAIR clinical isolate 13 after 24 hrs by broth microdilution method; settings: WRAIR clinical isolate 13, 24 h
[4] = test system: Pseudomonas aeruginosa; assay: Antibacterial activity against Pseudomonas aeruginosa PAO1 after 24 hrs by broth microdilution method; settings: PAO1, 24 h
[5] = test system: Staphylococcus aureus; assay: Antibacterial activity against methicillin-sensitive Staphylococcus aureus UAMS-1 after 24 hrs by broth microdilution method; settings: UAMS-1, 24 h
[6] = test system: Klebsiella aerogenes; assay: Antibacterial activity against Enterobacter aerogenes after 24 hrs by broth microdilution method

Structure (SMILES) | MBC [1] [µg/mL] | MIC [1] [µg/mL] | MBC [2] [µg/mL] | MIC [2] [µg/mL] | MBC [3] [µg/mL] | MIC [3] [µg/mL] | MBC [4] [µg/mL] | MIC [4] [µg/mL] | MBC [5] [µg/mL] | MIC [5] [µg/mL] | MBC [6] [µg/mL] | MIC [6] [µg/mL]
CC(=O)NCCC(=O)N[C@@H](Cc1ccccc1)C(=O)N1Cc2ccccc2C[C@H]1C(=O)N1CC2CCCCC2[C@H]1C(=O)NCCC(=O)N[C@@H](CCCCN)C(=O)N1Cc2ccccc2C[C@H]1C(=O)N1CC2CCCCC2[C@H]1C(=O)NCCC(=O)N[C@@H](Cc1ccccc1)C(=O)N1Cc2ccccc2C[C@H]1C(=O)N1CC2CCCCC2[C@H]1C(=O)NCCC(=O)N[C@@H](CCCCN)C(=O)N1Cc2ccccc2C[C@H]1C(=O)N[C@@H](CCCCN)C(=O)N[C@@H](CCCCN)C(=O)N[C@@H](CCCCN)C(=O)N[C@@H](CCCCN)C(=O)NC(C)=O (stereo partly drawn) (Ac-[βAla]F[Tic][Pro(3ξ,4ξ-(CH2)4)][βAla]K[Tic][Pro(3ξ,4ξ-(CH2)4)][βAla]F[Tic][Pro(3ξ,4ξ-(CH2)4)][βAla]K[Tic]KKK-X5) | 50 (≈ 19.7 µM) | 25 (≈ 9.85 µM) | > 100 | > 100 | 25 (≈ 9.85 µM) | 12.5 (≈ 4.92 µM) | > 100 | > 100 | > 100 | > 100 | > 100 | > 100
CC(C)C[C@H](NC(=O)[C@@H](N)CCN)C(=O)N1Cc2ccccc2C[C@H]1C(=O)N1CC2CCCCC2[C@H]1C(=O)N[C@@H](CCN)C(=O)N1Cc2ccccc2C[C@H]1C(=O)N1CC2CCCCC2[C@H]1C(=O)N[C@@H](Cc1ccccc1)C(=O)N1Cc2ccccc2C[C@H]1C(=O)N1CC2CCCCC2[C@H]1C(=O)N[C@@H](CCN)C(=O)N1Cc2ccccc2C[C@H]1C(=O)N1CC2CCCCC2[C@H]1C(=O)N[C@@H](Cc1ccccc1)C(=O)N1Cc2ccccc2C[C@H]1C(=O)N1CC2CCCCC2[C@H]1C(=O)N[C@@H](CCN)C(=O)N1Cc2ccccc2C[C@H]1C(=O)N1CC2CCCCC2[C@H]1C(=O)N[C@@H](CCN)C(=O)N[C@@H](CCN)C(=O)N[C@@H](CCN)C(=O)N[C@@H](CCN)C(N)=O (stereo partly drawn) (H-[Dab]L[Tic][Pro(3ξ,4ξ-(CH2)4)][Dab][Tic][Pro(3ξ,4ξ-(CH2)4)]F[Tic][Pro(3ξ,4ξ-(CH2)4)][Dab][Tic][Pro(3ξ,4ξ-(CH2)4)]F[Tic][Pro(3ξ,4ξ-(CH2)4)][Dab][Tic][Pro(3ξ,4ξ-(CH2)4)][Dab][Dab][Dab][Dab]-NH2) | 25 (≈ 8.1 µM) | 12.5 (≈ 4.05 µM) | 100 (≈ 32.4 µM) | 50 (≈ 16.2 µM) | 100 (≈ 32.4 µM) | 25 (≈ 8.1 µM) | 100 (≈ 32.4 µM) | 50 (≈ 16.2 µM) | 25 (≈ 8.1 µM) | 25 (≈ 8.1 µM) | 50 (≈ 16.2 µM) | 50 (≈ 16.2 µM)
CC(=O)NCC(=O)N[C@@H](Cc1ccc([N+](=O)[O-])cc1)C(=O)N1Cc2ccccc2C[C@H]1C(=O)N1CC2CCCCC2[C@H]1C(=O)NCC(=O)N[C@@H](CCCCN)C(=O)N1Cc2ccccc2C[C@H]1C(=O)N1CC2CCCCC2[C@H]1C(=O)NCC(=O)N[C@@H](Cc1ccc([N+](=O)[O-])cc1)C(=O)N1Cc2ccccc2C[C@H]1C(=O)N1CC2CCCCC2[C@H]1C(=O)NCC(=O)N[C@@H](CCCCN)C(=O)N1Cc2ccccc2C[C@H]1C(=O)N[C@@H](CCCCN)C(=O)N[C@@H](CCCCN)C(=O)N[C@@H](CCCCN)C(=O)N[C@@H](CCCCN)C(N)=O (stereo partly drawn) (Ac-G[Phe(4-NO2)][Tic][Pro(3ξ,4ξ-(CH2)4)]GK[Tic][Pro(3ξ,4ξ-(CH2)4)]G[Phe(4-NO2)][Tic][Pro(3ξ,4ξ-(CH2)4)]GK[Tic]KKKK-NH2) | 50 (≈ 19.8 µM) | 25 (≈ 9.88 µM) | 50 (≈ 19.8 µM) | 50 (≈ 19.8 µM) | 12.5 (≈ 4.94 µM) | 12.5 (≈ 4.94 µM) | 100 (≈ 39.5 µM) | 50 (≈ 19.8 µM) | > 100 | 100 (≈ 39.5 µM) | 100 (≈ 39.5 µM) | 100 (≈ 39.5 µM)
CC(=O)NCC(=O)N[C@@H](Cc1ccccc1)C(=O)N1Cc2ccccc2C[C@H]1C(=O)N1CC2CCCCC2[C@H]1C(=O)NCC(=O)N[C@@H](CCCCN)C(=O)N1Cc2ccccc2C[C@H]1C(=O)N1CC2CCCCC2[C@H]1C(=O)NCC(=O)N[C@@H](Cc1ccccc1)C(=O)N1Cc2ccccc2C[C@H]1C(=O)N1CC2CCCCC2[C@H]1C(=O)NCC(=O)N[C@@H](CCCCN)C(=O)N1Cc2ccccc2C[C@H]1C(=O)CCN[C@@H](CCCCN)C(=O)N[C@@H](CCCCN)C(=O)N[C@@H](CCCCN)C(=O)N[C@@H](CCCCN)C(N)=O (stereo partly drawn) (Ac-GF[Tic][Pro(3ξ,4ξ-(CH2)4)]GK[Tic][Pro(3ξ,4ξ-(CH2)4)]GF[Tic][Pro(3ξ,4ξ-(CH2)4)]GK-X6) | 50 (≈ 20.3 µM) | 12.5 (≈ 5.06 µM) | > 100 | > 100 | 25 (≈ 10.1 µM) | 12.5 (≈ 5.06 µM) | > 100 | > 100 | > 100 | > 100 | > 100 | > 100
CC(=O)NCC(=O)N[C@@H](Cc1ccccc1)C(=O)N1Cc2ccccc2C[C@H]1C(=O)N1CC2CCCCC2[C@H]1C(=O)NCC(=O)N[C@@H](CCCCN)C(=O)N1Cc2ccccc2C[C@H]1C(=O)N1CC2CCCCC2[C@H]1C(=O)NCC(=O)N[C@@H](Cc1ccccc1)C(=O)N1Cc2ccccc2C[C@H]1C(=O)N1CC2CCCCC2[C@H]1C(=O)NCC(=O)N[C@@H](CCCCN)C(=O)N1Cc2ccccc2C[C@H]1C(=O)CCCN[C@@H](CCCCN)C(=O)N[C@@H](CCCCN)C(=O)N[C@@H](CCCCN)C(=O)N[C@@H](CCCCN)C(N)=O (stereo partly drawn) (Ac-GF[Tic][Pro(3ξ,4ξ-(CH2)4)]GK[Tic][Pro(3ξ,4ξ-(CH2)4)]GF[Tic][Pro(3ξ,4ξ-(CH2)4)]GK-X3) | > 100 | 50 (≈ 20.1 µM) | > 100 | > 100 | 50 (≈ 20.1 µM) | 12.5 (≈ 5.03 µM) | > 100 | > 100 | > 100 | > 100 | > 100 | > 100
CC(C)C[C@H](NC(=O)[C@@H](N)CCCCN)C(=O)N1Cc2ccccc2C[C@H]1C(=O)N1CC2CCCCC2[C@H]1C(=O)NCC(=O)N[C@@H](CCCCN)C(=O)N1Cc2ccccc2C[C@H]1C(=O)N1CC2CCCCC2[C@H]1C(=O)N[C@@H](Cc1ccccc1)C(=O)N1Cc2ccccc2C[C@H]1C(=O)N1CC2CCCCC2[C@H]1C(=O)NCC(=O)N[C@@H](CCCCN)C(=O)N1Cc2ccccc2C[C@H]1C(=O)N1CC2CCCCC2[C@H]1C(=O)N[C@@H](Cc1ccccc1)C(=O)N1Cc2ccccc2C[C@H]1C(=O)N1CC2CCCCC2[C@H]1C(=O)NCC(=O)N[C@@H](CCCCN)C(=O)N1Cc2ccccc2C[C@H]1C(=O)N1CC2CCCCC2[C@H]1C(=O)N[C@@H](CCCCN)C(=O)N[C@@H](CCCCN)C(=O)N[C@@H](CCCCN)C(=O)N[C@@H](CCCCN)C(N)=O (stereo partly drawn) (H-KL[Tic][Pro(3ξ,4ξ-(CH2)4)]GK[Tic][Pro(3ξ,4ξ-(CH2)4)]F[Tic][Pro(3ξ,4ξ-(CH2)4)]GK[Tic][Pro(3ξ,4ξ-(CH2)4)]F[Tic][Pro(3ξ,4ξ-(CH2)4)]GK[Tic][Pro(3ξ,4ξ-(CH2)4)]KKKK-NH2) | 25 (≈ 7.18 µM) | 6.25 (≈ 1.79 µM) | 100 (≈ 28.7 µM) | > 100 | 50 (≈ 14.4 µM) | 12.5 (≈ 3.59 µM) | > 100 | > 100 | 50 (≈ 14.4 µM) | 50 (≈ 14.4 µM) | > 100 | > 100
CC(=O)NCCC(=O)N[C@@H](Cc1ccc(F)cc1)C(=O)N1Cc2ccccc2C[C@H]1C(=O)N1CC2CCCCC2[C@H]1C(=O)NCCC(=O)N[C@@H](CN)C(=O)N1Cc2ccccc2C[C@H]1C(=O)N1CC2CCCCC2[C@H]1C(=O)NCCC(=O)N[C@@H](Cc1ccc(F)cc1)C(=O)N1Cc2ccccc2C[C@H]1C(=O)N1CC2CCCCC2[C@H]1C(=O)NCCC(=O)N[C@@H](CN)C(=O)N1Cc2ccccc2C[C@H]1C(=O)N[C@@H](CN)C(=O)N[C@@H](CN)C(=O)N[C@@H](CN)C(=O)N[C@@H](CN)C(=O)NC(C)=O (stereo partly drawn) (Ac-[βAla][Phe(4-F)][Tic][Pro(3ξ,4ξ-(CH2)4)][βAla][Dap][Tic][Pro(3ξ,4ξ-(CH2)4)][βAla][Phe(4-F)][Tic][Pro(3ξ,4ξ-(CH2)4)][βAla][Dap][Tic][Dap][Dap][Dap]-X1) | > 100 | 50 (≈ 21.5 µM) | 25 (≈ 10.8 µM) | 12.5 (≈ 5.38 µM) | 25 (≈ 10.8 µM) | 12.5 (≈ 5.38 µM) | 50 (≈ 21.5 µM) | 25 (≈ 10.8 µM) | > 100 | > 100 | 25 (≈ 10.8 µM) | 25 (≈ 10.8 µM)
CC(=O)NCC(=O)N[C@@H](Cc1ccccc1)C(=O)N1Cc2ccccc2C[C@H]1C(=O)N1CC2CCCCC2[C@H]1C(=O)NCC(=O)N[C@@H](Cc1c[nH]c2ccccc12)C(=O)N1Cc2ccccc2C[C@H]1C(=O)N1CC2CCCCC2[C@H]1C(=O)NCC(=O)N[C@@H](Cc1ccccc1)C(=O)N1Cc2ccccc2C[C@H]1C(=O)N1CC2CCCCC2[C@H]1C(=O)NCC(=O)N[C@@H](Cc1c[nH]c2ccccc12)C(=O)N1Cc2ccccc2C[C@H]1C(=O)N[C@@H](CCCCN)C(=O)N[C@@H](CCCCN)C(=O)N[C@@H](CCCCN)C(=O)N[C@@H](CCCCN)C(N)=O (stereo partly drawn) (Ac-GF[Tic][Pro(3ξ,4ξ-(CH2)4)]GW[Tic][Pro(3ξ,4ξ-(CH2)4)]GF[Tic][Pro(3ξ,4ξ-(CH2)4)]GW[Tic]KKKK-NH2) | 100 (≈ 39.1 µM) | 25 (≈ 9.78 µM) | > 100 | > 100 | 100 (≈ 39.1 µM) | 25 (≈ 9.78 µM) | > 100 | > 100 | > 100 | > 100 | > 100 | > 100
CC(=O)NCCCC(=O)N[C@@H](Cc1ccccc1)C(=O)N1Cc2ccccc2C[C@H]1C(=O)N1CC2CCCCC2[C@H]1C(=O)NCCCC(=O)N[C@@H](CCCCN)C(=O)N1Cc2ccccc2C[C@H]1C(=O)N1CC2CCCCC2[C@H]1C(=O)NCCCC(=O)N[C@@H](Cc1ccccc1)C(=O)N1Cc2ccccc2C[C@H]1C(=O)N1CC2CCCCC2[C@H]1C(=O)NCCCC(=O)N[C@@H](CCCCN)C(=O)N1Cc2ccccc2C[C@H]1C(=O)N[C@@H](CCCCN)C(=O)N[C@@H](CCCCN)C(=O)N[C@@H](CCCCN)C(=O)N[C@@H](CCCCN)C(N)=O (stereo partly drawn) (Ac-[GABA]F[Tic][Pro(3ξ,4ξ-(CH2)4)][GABA]K[Tic][Pro(3ξ,4ξ-(CH2)4)][GABA]F[Tic][Pro(3ξ,4ξ-(CH2)4)][GABA]K[Tic]KKKK-NH2) | 25 (≈ 9.79 µM) | 12.5 (≈ 4.9 µM) | 100 (≈ 39.2 µM) | 100 (≈ 39.2 µM) | 25 (≈ 9.79 µM) | 12.5 (≈ 4.9 µM) | > 100 | > 100 | > 100 | > 100 | > 100 | > 100
